Test results: US20100113438A1, “CLASS OF HISTONE DEACETYLASE INHIBITORS” (DAC S.R.L., priority 2006, published 2010)

How the values were obtained:
[1] = system: HDAC (nuclear extract of HeLa cells); experiment: Assay of enzyme inhibition of HDAC (BIOMOL Kit); format: biochemical; details: substrate 116 μM
Method: The in-vitro activity of HDAC inhibitors was assayed by means of a biochemical assay using a BIOMOL Kit, according to the recommended experimental conditions. […] The samples were incubated for 10 minutes at room temperature and then exposed to a developer (15 minutes at room temperature). In this last step a fluorophore was produced, whose fluorescence was measured using an excitation wavelength of 355 nm and an emission at 460 nm.

[2] = Metabolic stability in hepatic microsomes (mouse); format: in vitro ADME; details: mouse hepatic microsomes 0.5 mg/ml, compound 1 μM, 37° C., pH 7.4, 30 min
Method: (§1) The test compound was dissolved in DMSO at the final concentration of 1 μM and pre-incubated for 10 min at 37° C. in potassium phosphate buffer pH 7.4 together with mouse or human hepatic microsomes (Xenotech) at the final concentration of 0.5 mg/ml.
(§2) After the pre-incubation the reaction was started by adding the cofactor mixture (NADP, G6P, G6P-DH); aliquots were taken at time 0 and 30 min, added to acetonitrile in order to stop the reaction. After centrifugation the supernatant was separated and analyzed by LC-MS/MS.
(§3) A control sample without cofactor was always studied in parallel in order to check the chemical stability of the test compound.
(§4) Two reference compounds of known metabolic stability 7-ethoxycoumarin and propranolol were present each time to access the validity of the experiment.
(§5) A fixed concentration of verapamil was added in each sample as internal standard for the LC-MS/MS analysis.
(§6) The percentage of the compound remaining after 30 min incubation period was calculated according the following equation: [area at time 30 min]/[area at time 0 min]*100%.

[3] = Metabolic stability in hepatic microsomes (human); format: in vitro ADME; details: human hepatic microsomes 0.5 mg/ml, compound 1 μM, 37° C., pH 7.4, 30 min
Method: as §1, §2, §3, §4, §5, §6

Row | SMILES | IC50 [1] [nM] | Met. mouse (percentage of the compound remaining after 30 min incubation) [2] [%] | Met. human (percentage of the compound remaining after 30 min incubation) [3] [%]
1 | O=C(/C=C/c1ccc(/C=C/C(=O)c2ccc(F)c(F)c2)cn1)NO [Ref (*) 72, reference compound] | 20 | 10.83 | 15.32
2 | CN1CCN(c2ccc(C(=O)/C=C/c3ccc(/C=C/C(=O)NO)cc3)cc2)CC1 [Ref (*) 59, reference compound] | – | 9.12 | 33.29
3 | CN1CCN(Cc2ccccc2C(=O)/C=C/c2ccc(/C=C/C(=O)NO)nc2)CC1 [Example 47, (E)-N-Hydroxy-3-(5-{(E)-3-[2-(4-methyl-piperazin-1-ylmethyl)-phenyl]-3-oxo-propenyl}-pyridin-2-yl)-acrylamide] | – | 52.66 | 93.48
4 | O=C(/C=C/c1ccc(/C=C/C(=O)c2cccs2)cn1)NO [Ref (*) 71, reference compound] | 67.5 | 6.04 | 21.82
5 | CN1CCC(Cc2ccc(C(=O)/C=C/c3ccc(/C=C/C(=O)NO)nc3)cc2)CC1 [Example 44, (E)-N-Hydroxy-3-(5-{(E)-3-[4-(1-methyl-piperidin-4-ylmethyl)-phenyl]-3-oxo-propenyl}-pyridin-2-yl)-acrylamide] | 1.3 | 54.56 | 34.38
6 | O=C(/C=C/c1ccc(/C=C/C(=O)c2ccc(N3CCOCC3)cc2)c(F)c1)NO [Ref (*) 29, reference compound] | 282 | 11.17 | 20.86
7 | CC(=O)N1CCN(Cc2ccc(C(=O)/C=C/c3ccc(/C=C/C(=O)NO)cc3)cc2)CC1 [Example 30, (E)-3-(4-{(E)-3-[4-(4-Acetyl-piperazin-1-ylmethyl)-phenyl]-3-oxo-propenyl}-phenyl)-N-hydroxy-acrylamide] | 25 | – | –
8 | C[C@@H]1CN(c2cccc(C(=O)/C=C/c3ccc(/C=C/C(=O)NO)nc3)c2)C[C@H](C)N1C [Example 43, (E)-N-Hydroxy-3-(5-{(E)-3-oxo-3-[3-((3R,5S)-3,4,5-trimethyl-piperazin-1-yl)-phenyl]-propenyl}-pyridin-2-yl)-acrylamide] | 4 | 42.45 | 37.29
9 | O=C(/C=C/c1ccc(/C=C/C(=O)c2ccc(N3CCNCC3)cc2)cc1)NO [Example 15, (E)-N-Hydroxy-3-{4-[(E)-3-(4-piperazin-1-yl-phenyl)-3-oxo-propenyl]-phenyl}-acrylamide] | – | 30.5 | 42.58
10 | CN1CCN(c2cc(Cl)cc(C(=O)/C=C/c3ccc(/C=C/C(=O)NO)cc3)c2)CC1 [Example 25, (E)-3-(4-{(E)-3-[3-Chloro-5-(4-methyl-piperazin-1-yl)-phenyl]-3-oxo-propenyl}-phenyl)-N-hydroxy-acrylamide] | 35 | 84.89 | 57.28
11 | CN1CCN(c2ccccc2C(=O)/C=C/c2ccc(/C=C/C(=O)NO)cc2)CC1 [Example 1, (E)-N-Hydroxy-3-(4-{(E)-3-[2-(4-methyl-piperazin-1-yl)-phenyl]-3-oxo-propenyl}-phenyl)-acrylamide] | – | 33.81 | 38.16
12 | COc1cc(C(=O)/C=C/c2ccc(/C=C/C(=O)NO)cc2)ccc1CN1CCOCC1 [Ref (*) 48, reference compound] | – | 2.8 | 35.28
13 | CN(C)C1CCN(c2ccc(C(=O)/C=C/c3ccc(/C=C/C(=O)NO)cc3)cc2)CC1 [Example 4, (E)-3-(4-{(E)-3-[4-(4-Dimethylamino-piperidin-1-yl)-phenyl]-3-oxo-propenyl}-phenyl)-N-hydroxy-acrylamide] | – | 14.00 | 41.88

The remaining lines, values ahead:

Row | IC50 [1] [nM] | Met. mouse (percentage of the compound remaining after 30 min incubation) [2] [%] | Met. human (percentage of the compound remaining after 30 min incubation) [3] [%] | SMILES
14 | 6.1 | 20.29 | 44.35 | C[C@@H]1CN(c2ccc(C(=O)/C=C/c3ccc(/C=C/C(=O)NO)nc3)cc2)C[C@H](C)N1C [Example 39, (E)-N-Hydroxy-3-(5-{(E)-3-oxo-3-[4-((3R,5S)-3,4,5-trimethyl-piperazin-1-yl)-phenyl]-propenyl}-pyridin-2-yl)-acrylamide]
15 | 4.8 | 50.47 | 35.27 | CC(=O)N1CCN(c2ccc(C(=O)/C=C/c3ccc(/C=C/C(=O)NO)nc3)cc2)CC1 [Example 42, (E)-3-(5-{(E)-3-[4-(4-Acetyl-piperazin-1-yl)-phenyl]-3-oxo-propenyl}-pyridin-2-yl)-N-hydroxy-acrylamide]
16 | 238 | 2.76 | 8.66 | O=C(/C=C/c1ccc(/C=C/C(=O)c2ccc(N3CCOCC3)cc2)cc1)NO [Ref (*) 41, reference compound]
17 | – | 5.65 | 13.74 | O=C(/C=C/c1ccc(/C=C/C(=O)c2ccccc2)cn1)NO [Ref (*) 69, reference compound]
18 | – | 16.75 | 61.16 | CN1CCN(Cc2ccc(C(=O)/C=C/c3ccc(/C=C/C(=O)NO)cc3)cc2)CC1 [Example 7, (E)-N-Hydroxy-3-(4-{(E)-3-[4-(4-methyl-piperazin-1-yl-methyl)-phenyl]-3-oxo-propenyl}-phenyl)-acrylamide]
19 | 0.7 | 43.41 | 53.65 | O=C(/C=C/c1ccc(/C=C/C(=O)c2ccc(N3CCNCC3)cc2)cn1)NO [Example 45, (E)-N-Hydroxy-3-{5-[(E)-3-oxo-3-(4-piperazin-1-yl-phenyl)-propenyl]-pyridin-2-yl}-acrylamide]
20 | – | 42.41 | 50.84 | O=C(/C=C/c1ccc(/C=C/C(=O)c2ccc(CN3CCNCC3)cc2)cc1)NO [Example 26, (E)-N-Hydroxy-3-{4-[(E)-3-oxo-3-(4-piperazin-1-ylmethyl-phenyl)-propenyl]-phenyl}-acrylamide]
